Assays:
PPARα = target: T1, PPARα (Homo sapiens, UniProt Q07869); assay: PPARα receptor radioligand binding assay (SPA); settings: GST-PPARα-LBD fusion protein on SPA beads
T1 construct: PPARα (aa 167 to 469); made in house; host or cells: E. coli BL21 (pLysS)
T1 sequence (Q07869 167-468 limits assumed): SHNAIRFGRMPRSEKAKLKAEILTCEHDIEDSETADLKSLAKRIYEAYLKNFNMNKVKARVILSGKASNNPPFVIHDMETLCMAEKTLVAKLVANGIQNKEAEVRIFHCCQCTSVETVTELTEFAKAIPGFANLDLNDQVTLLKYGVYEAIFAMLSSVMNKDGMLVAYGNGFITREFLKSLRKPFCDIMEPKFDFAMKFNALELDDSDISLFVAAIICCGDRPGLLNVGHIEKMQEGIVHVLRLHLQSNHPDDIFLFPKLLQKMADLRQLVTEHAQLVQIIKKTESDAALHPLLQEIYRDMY
Text: (§1) Background information on the performed assays can be found in: Nichols J S et al. “Development of a scintillation proximity assay for peroxisome proliferator-activated receptor gamma ligand binding domain”, (1998) Anal. Biochem. 257:112–119.
(§2) Full-length cDNA clones for humans PPARδ and PPARα and mouse PPARγ were obtained by RT-PCR from human adipose and mouse liver cRNA, respectively, cloned into plasmid vectors and verified by DNA sequencing. Bacterial and mammalian expression vectors were constructed to produce glutathione-s-transferase (GST) and Gal4 DNA binding domain proteins fused to the ligand binding domains (LBD) of PPARδ (aa 139 to 442), PPARγ (aa 174 to 476) and PPARα (aa 167 to 469). To accomplish this, the portions of the cloned sequences encoding the LBDs were amplified from the full-length clones by PCR and then subcloned into the plasmid vectors. Final clones were verified by DNA sequence analysis.
(§3) Induction, expression, and purification of GST-LBD fusion proteins were performed in E. coli strain BL21 (pLysS) cells by standard methods (Ref: Current Protocols in Molecular Biology, Wiley Press, edited by Ausubel et al.).
(§4) PPARα receptor binding was assayed in TKE50 (50 mM Tris-HCl, pH 8, 50 mM KCl, 2 mM EDTA, 0.1 mg/ml fatty acid-free BSA and 10 mM DTT). For each 96 well reaction an 140 ng equivalent of GST-PPARα-LBD fusion protein was bound to 10 μg SPA beads (PharmaciaAmersham) in a final volume of 50 μl by shaking. The resulting slurry was incubated for 1 h at RT and centrifuged for 2 min at 1300 g. The supernatant containing unbound protein was removed and the semidry pellet containing the receptor-coated beads was resolved in 50 μl of TKE. […] All binding assays were performed in 96 well plates and the amount of bound ligand measured on a Packard TopCount using OptiPlates (Packard). Nonspecific binding was determined in the presence of 10^−4 M unlabelled compound. […]

PPARγ = target: T2, PPARγ (Mus musculus, UniProt P37238); assay: PPARγ receptor radioligand binding assay (SPA); settings: GST-PPARγ-LBD fusion protein on SPA beads
T2 construct: PPARγ (aa 174 to 476); made in house; host or cells: E. coli BL21 (pLysS)
T2 sequence (P37238 174-475 isoform P37238-2): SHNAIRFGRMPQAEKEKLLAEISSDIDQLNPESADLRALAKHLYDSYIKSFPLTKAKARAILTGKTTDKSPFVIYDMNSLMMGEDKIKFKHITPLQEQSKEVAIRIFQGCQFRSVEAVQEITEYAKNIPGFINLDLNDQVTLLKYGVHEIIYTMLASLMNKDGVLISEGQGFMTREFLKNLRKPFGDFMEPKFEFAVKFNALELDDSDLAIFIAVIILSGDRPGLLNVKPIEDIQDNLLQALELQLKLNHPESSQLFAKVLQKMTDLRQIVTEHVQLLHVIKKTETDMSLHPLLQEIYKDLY
Text: as §1, §2, §3
as §4, with “PPARγ receptor” for “PPARα receptor”, “reaction a” for “reaction an”, “of GST-PPARγ-LBD” for “of GST-PPARα-LBD”, “50 ul” for “50 μl”, “at 1300g.” for “at 1300 g.”

PPARδ = target: T3, PPARδ (Homo sapiens, UniProt Q03181); assay: PPARδ receptor radioligand binding assay (SPA); settings: GST-PPARδ-LBD fusion protein on SPA beads
T3 construct: PPARδ (aa 139 to 442); made in house; host or cells: E. coli BL21 (pLysS)
T3 sequence (Q03181 139-441 limits assumed): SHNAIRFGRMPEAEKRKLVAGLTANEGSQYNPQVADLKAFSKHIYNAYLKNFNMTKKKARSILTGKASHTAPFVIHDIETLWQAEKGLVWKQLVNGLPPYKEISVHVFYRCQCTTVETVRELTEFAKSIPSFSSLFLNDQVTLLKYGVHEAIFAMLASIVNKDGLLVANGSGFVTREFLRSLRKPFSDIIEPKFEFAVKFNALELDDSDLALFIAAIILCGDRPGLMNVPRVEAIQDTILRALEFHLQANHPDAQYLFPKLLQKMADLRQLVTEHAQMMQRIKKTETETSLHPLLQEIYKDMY
Text: as §1, §2, §3
PPARδ receptor binding was assayed in HNM10 (50 mM Hepes, pH 7.4, 10 mM NaCl, 5 mM MgCl2, 0.15 mg/ml fatty acid-free BSA and 15 mM DTT). For each 96 well reaction a 500 ng equivalent of GST-PPARδ-LBD fusion protein and radioligand, e.g. 20000 dpm {2-methyl-4-[4-methyl-2-(4-trifluoromethyl-phenyl)-thiazol-5-yl-ditritiomethylsulfanyl]-phenoxy}-acetic acid, was bound to 10 μg SPA beads (PharmaciaAmersham) in a final volume of 50 μl by shaking. The resulting slurry was incubated for 1 h at RT and centrifuged for 2 min at 1300 g. […] Radioligand was added and the reaction incubated at RT for 1 h and scintillation proximity counting performed in the presence of test compounds was determined. All binding assays were performed in 96 well plates and the amount of bound ligand was measured on a Packard TopCount using OptiPlates (Packard). […]

Structure (SMILES)	IC50 (PPARα)	IC50 (PPARγ)	IC50 (PPARδ)	melting point
Cc1cc(N(C)Cc2cnc(-c3ccc(C(F)(F)F)cc3)nc2C2CC2)ccc1OCC(=O)O [Example 27, (4-{[4-Cyclopropyl-2-(4-trifluoromethyl-phenyl)-pyrimidin-5-ylmethyl]-methyl-amino}-2-methyl-phenoxy)-acetic acid]	289 nM	> 10000 nM	31 nM	–
Cc1cc(OCc2ccc(-c3cccc(C(F)(F)F)c3)nc2C)ccc1OC(C)(C)C(=O)O [Example 8, 2-Methyl-2-{2-methyl-4-[2-methyl-6-(3-trifluoromethyl-phenyl)-pyridin-3-ylmethoxy]-phenoxy}-propionic acid]	13 nM	> 10000 nM	26 nM	105 to 107 °C
Cc1cc(OCc2ccc(-c3ccc(F)c(C(F)(F)F)c3)nc2C)ccc1OC(C)(C)C(=O)O [Example 24, 2-{4-[6-(4-Fluoro-3-trifluoromethyl-phenyl)-2-methyl-pyridin-3-ylmethoxy]-2-methyl-phenoxy}-2-methyl-propionic acid]	–	–	–	141 to 143 °C
COCCCc1cc(N(C)Cc2ccc(-c3ccc(OC(F)(F)F)cc3)nc2)ccc1OCC(=O)O [Example 14, (2-(3-Methoxy-propyl)-4-{methyl-[6-(4-trifluoromethoxy-phenyl)-pyridin-3-ylmethyl]-amino}-phenoxy)-acetic acid]	–	–	–	73 to 75 °C
Cc1cc(OC(C)c2ccc(-c3ccc(C(F)(F)F)cc3)nc2C)ccc1SCC(=O)O (racemic) [Example 20, [rac]-(2-Methyl-4-{1-[2-methyl-6-(4-trifluoromethyl-phenyl)-pyridin-3-yl]-ethoxy}-phenylsulfanyl)-acetic acid]	454 nM	> 10000 nM	2 nM	–
Cc1cc(OCc2cnc(-c3ccc(OC(F)(F)F)cc3)cc2Cl)ccc1OC(C)(C)C(=O)O [Example 109, 2-{4-[4-Chloro-6-(4-trifluoromethoxy-phenyl)-pyridin-3-ylmethoxy]-2-methyl-phenoxy}-2-methyl-propionic acid]	–	–	–	179 to 181 °C (dec.)

Source: patent US7115611B2, “Phenyl derivatives, their manufacture and use as pharmaceutical agents” (Hoffmann-la Roche Inc., priority 2003, dated 2006)
